# Test results reported in patent US9440941B2, “Substituted chroman-6-yloxy-cycloalkanes and their use as pharmaceuticals” (SANOFI, priority 2013, dated 2016).
# Where a name gives a salt, the structure may show the parent alone.
# Target: T1, human NCX1 (Homo sapiens, UniProt P32418)
# T1 construct: expressed in transfected cells
# Test: Inhibition of Ca2+ influx into cells (NCX1 reverse mode), FLIPR Fluo-4 assay
# Assay type: cell-based
# Settings: at 10 μM; NCX1 reverse mode; IC50 value not determined; read-out: Inhibition in % at 10 μM (NCX1rv)
# Procedure, shortened: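 Ca2+ influx via reverse-mode exchange was evoked with gramicidin (20 µM final) after 45 min compound exposure at 16 °C in stably transfected CHO cells. Fluo-4 signal (520 nm) was followed on FLIPR at 2 s intervals. Max–min fluorescence gave percentage inhibition, from which IC50 was calculated.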
row,SMILES,inhibition at 10 µM [%]
1,Cc1ccccc1C1CCc2cc(OC3CCC(NCCSC(C)C)CC3)ccc2O1 (stereo not drawn) [compound 194],85
2,CCC(COC)NC1CCC(Oc2ccc3c(c2)CCC(c2ccccc2C)O3)CC1 (stereo not drawn) [compound 195],96
3,Cc1ccccc1C1CCc2cc(OC3CCC(NCCC4CCOCC4)CC3)ccc2O1 (stereo not drawn) [compound 196],97
4,Cc1ccccc1C1CCc2cc(OC3CCC(NC4CCOCC4)CC3)ccc2O1 (stereo not drawn) [compound 197],96
5,Cc1ccccc1C1CCc2cc(OC3CCC(NCCCC4CCOC4)CC3)ccc2O1 (stereo not drawn) [compound 198],97
6,Cc1ccccc1C1CCc2cc(OC3CCC(NCCCOC4CCCC4)CC3)ccc2O1 (stereo not drawn) [compound 199],71
7,COCC(C)(C)CNC1CCC(Oc2ccc3c(c2)CCC(c2ccccc2C)O3)CC1 (stereo not drawn) [compound 200],94
8,CCOCCCNC1CCC(Oc2ccc3c(c2)CCC(c2ccccc2C)O3)CC1 (stereo not drawn) [compound 201],98

# Same assay, conditions: at 10 μM; NCX1 reverse mode; IC50 value not determined; read-out: NCX1rv inhibition in % at 10 μM
row,SMILES,inhibition at 10 µM [%]
1,Cc1ccccc1C1CCc2cc(OC3CCC(NCC4CCCO4)CC3)ccc2O1 (stereo not drawn) [compound 187],99
2,COCC(C)NC1CCC(Oc2ccc3c(c2)CCC(c2ccccc2C)O3)CC1 (stereo not drawn) [compound 188],96
3,COCCNC1CCC(Oc2ccc3c(c2)CCC(c2ccccc2C)O3)CC1 (stereo not drawn) [compound 189],100
4,Cc1ccccc1C1CCc2cc(OC3CCC(NCCCOC(C)C)CC3)ccc2O1 (stereo not drawn) [compound 190],93
5,CCSCCNC1CCC(Oc2ccc3c(c2)CCC(c2ccccc2C)O3)CC1 (stereo not drawn) [compound 191],95
6,CSCCNC1CCC(Oc2ccc3c(c2)CCC(c2ccccc2C)O3)CC1 (stereo not drawn) [compound 192],98
7,COCCCNC1CCC(Oc2ccc3c(c2)CCC(c2ccccc2C)O3)CC1 (stereo not drawn) [compound 193],99

# Same assay, conditions: inhibition of NCX1 in reverse mode (Ca2+ influx into cells); read-out: NCX1rv IC50
row,SMILES,IC50 [nM]
1,"CC(C)(C)CNC1CCC(Oc2ccc3c(c2)CCC(c2ccccc2)O3)CC1 (stereo not drawn) [compound 161, N-(2,2-Dimethylpropyl)-4-(2-phenylchroman-6-yloxy)-cyclohexylamine]",1300
2,"CC(C)(C)CNC1CCC(Oc2ccc3c(c2)CCC(c2ccccc2)O3)CC1 (stereo not drawn) [compound 162, N-(2,2-Dimethylpropyl)-4-(2-phenylchroman-6-yloxy)-cyclohexylamine]",2300
3,"CC1(O)CCC(Oc2ccc3c(c2)CCC(c2ccccc2)O3)CC1 (stereo not drawn) [compound 163, 1-Methyl-4-(2-phenylchroman-6-yloxy)-cyclohexanol]",600
4,Cc1cccc(C)c1C1CCc2cc(OC3CCC(NCc4c(C)nn(C)c4C)CC3)ccc2O1 (stereo not drawn) [compound 164],9400
5,CSC(C)CCNC1CCC(Oc2ccc3c(c2)CCC(c2c(C)cccc2C)O3)CC1 (stereo not drawn) [compound 165],10000
6,Cc1cccc(C)c1C1CCc2cc(OC3CCC(C(=O)NCCO)CC3)ccc2O1 (stereo not drawn) [compound 166],6200
7,Cc1cccc(C)c1C1CCc2cc(OC3CCC(C(=O)NCc4ccno4)CC3)ccc2O1 (stereo not drawn) [compound 167],7700
8,Cc1nn(C)c(C)c1CNC1CCC(Oc2ccc3c(c2)CCC(c2ccccc2F)O3)CC1 (stereo not drawn) [compound 169],2500
9,CSC(C)CCNC1CCC(Oc2ccc3c(c2)CCC(c2ccccc2F)O3)CC1 (stereo not drawn) [compound 170],4600
10,O=C(NCCO)C1CCC(Oc2ccc3c(c2)CCC(c2ccccc2F)O3)CC1 (stereo not drawn) [compound 173],700
11,O=C(NCc1ccno1)C1CCC(Oc2ccc3c(c2)CCC(c2ccccc2F)O3)CC1 (stereo not drawn) [compound 174],600
12,CSC(C)CCNC1CCC(Oc2ccc3c(c2)CCC(c2ccccc2C)O3)CC1 (stereo not drawn) [compound 175],3500
13,"N[C@@H](CO)C(=O)N[C@H]1CC[C@H](Oc2ccc3c(c2)CCC(c2ccccc2)O3)CC1 (stereo partly drawn) [compound 181, hydrochloride]",300
14,CCn1nccc1CNC(=O)C1CCC(Oc2ccc3c(c2)CCC(c2ccccc2F)O3)CC1 (stereo not drawn) [compound 183],10000
15,O=C(NCc1ccnc(Cl)c1)C1CCC(Oc2ccc3c(c2)CCC(c2ccccc2F)O3)CC1 (stereo not drawn) [compound 184],1300
16,Cc1ccccc1C1CCc2cc(OC3CCC(NCCN4CCOCC4)CC3)ccc2O1 (stereo not drawn) [compound 202],1900
17,Cc1ccccc1C1CCc2cc(OC3CCC(NC4CC4)CC3)ccc2O1 (stereo not drawn) [compound 203],1500
18,Cc1ccccc1C1CCc2cc(OC3CCC(NC4CCCC4)CC3)ccc2O1 (stereo not drawn) [compound 204],1900
19,CCCNC1CCC(Oc2ccc3c(c2)CCC(c2ccccc2C)O3)CC1 (stereo not drawn) [compound 205],1500
20,Cc1ccccc1C1CCc2cc(OC3CCC(NC4CCS(=O)(=O)C4)CC3)ccc2O1 (stereo not drawn) [compound 206],1100
21,COC[C@H](C)NC1CCC(Oc2ccc3c(c2)CCC(c2ccccc2C)O3)CC1 (stereo partly drawn) [compound 207],1500

row,SMILES,IC50 [nM]
1,Cc1ccccc1C1CCc2cc(OC3CCC(NCC4CCOCC4)CC3)ccc2O1 (stereo not drawn) [compound 208],3000
2,Cc1ccccc1C1CCc2cc(OC3CCC(NCCN4CCSCC4)CC3)ccc2O1 (stereo not drawn) [compound 209],3200
3,O=S1(=O)CCC(NC2CCC(Oc3ccc4c(c3)CCC(c3ccccc3F)O4)CC2)C1 (stereo not drawn) [compound 210],1100
4,COCC(C)(C)CNC1CCC(Oc2ccc3c(c2)CCC(c2ccccc2F)O3)CC1 (stereo not drawn) [compound 211],2200
5,Fc1ccccc1C1CCc2cc(OC3CCC(NC4CC4)CC3)ccc2O1 (stereo not drawn) [compound 212],1700
6,CCCNC1CCC(Oc2ccc3c(c2)CCC(c2ccccc2F)O3)CC1 (stereo not drawn) [compound 213],1400
7,COCCNC1CCC(Oc2ccc3c(c2)CCC(c2ccccc2F)O3)CC1 (stereo not drawn) [compound 214],1600
8,COCCCNC1CCC(Oc2ccc3c(c2)CCC(c2ccccc2F)O3)CC1 (stereo not drawn) [compound 215],2800
9,Fc1ccccc1C1CCc2cc(OC3CCC(NCC4CCCO4)CC3)ccc2O1 (stereo not drawn) [compound 216],1700
10,CCSCCNC1CCC(Oc2ccc3c(c2)CCC(c2ccccc2F)O3)CC1 (stereo not drawn) [compound 217],2300
11,Fc1ccccc1C1CCc2cc(OC3CCC(NC4CCCC4)CC3)ccc2O1 (stereo not drawn) [compound 218],2800
12,COCC(C)NC1CCC(Oc2ccc3c(c2)CCC(c2ccccc2F)O3)CC1 (stereo not drawn) [compound 219],2400
13,Fc1ccccc1C1CCc2cc(OC3CCC(NCCC4CCOCC4)CC3)ccc2O1 (stereo not drawn) [compound 220],2400
14,COC[C@H](C)NC1CCC(Oc2ccc3c(c2)CCC(c2ccccc2F)O3)CC1 (stereo partly drawn) [compound 221],2300
15,CCC(COC)NC1CCC(Oc2ccc3c(c2)CCC(c2ccccc2F)O3)CC1 (stereo not drawn) [compound 222],3100
16,CCOCCCNC1CCC(Oc2ccc3c(c2)CCC(c2ccccc2F)O3)CC1 (stereo not drawn) [compound 223],3100
17,Fc1ccccc1C1CCc2cc(OC3CCC(NCCN4CCOCC4)CC3)ccc2O1 (stereo not drawn) [compound 224],3500
18,CC(C)OCCCNC1CCC(Oc2ccc3c(c2)CCC(c2ccccc2F)O3)CC1 (stereo not drawn) [compound 225],3900
19,CSCCNC1CCC(Oc2ccc3c(c2)CCC(c2ccccc2F)O3)CC1 (stereo not drawn) [compound 226],2400
20,Fc1ccccc1C1CCc2cc(OC3CCC(NCCN4CCSCC4)CC3)ccc2O1 (stereo not drawn) [compound 227],4300
21,Fc1ccccc1C1CCc2cc(OC3CCC(NCCCC4CCOC4)CC3)ccc2O1 (stereo not drawn) [compound 228],2200

row,SMILES,IC50 [nM]
1,Fc1ccccc1C1CCc2cc(OC3CCC(NCCCOC4CCCC4)CC3)ccc2O1 (stereo not drawn) [compound 229],6000
2,CCCCNC1CCC(Oc2ccc3c(c2)CCC(c2ccccc2F)O3)CC1 (stereo not drawn) [compound 230],2900
3,Fc1ccccc1C1CCc2cc(OC3CCC(NC4CCOCC4)CC3)ccc2O1 (stereo not drawn) [compound 231],4100
4,CC(C)SCCNC1CCC(Oc2ccc3c(c2)CCC(c2ccccc2F)O3)CC1 (stereo not drawn) [compound 232],5900
5,O=C(N[C@H]1CC[C@H](Oc2ccc3c(c2)CCC(c2ccccc2F)O3)CC1)C1CCC1 (stereo partly drawn) [compound 244],100
6,CO[C@H](C)C(=O)N[C@H]1CC[C@H](Oc2ccc3c(c2)CCC(c2ccccc2F)O3)CC1 (stereo partly drawn) [compound 255],200
7,Cc1c(F)cccc1C1CCc2cc(OC3CCC(C(=O)NCCO)CC3)ccc2O1 (stereo not drawn) [compound 262],200
8,Cc1c(F)cccc1C1CCc2cc(OC3CCC(C(=O)NCc4ccno4)CC3)ccc2O1 (stereo not drawn) [compound 263],100
9,Cc1ccccc1C1CCc2cc(OC3CCC(C(=O)NC(CO)CO)CC3)ccc2O1 (stereo not drawn) [compound 264],200
10,Cc1c(F)cccc1C1CCc2cc(OC3CCC(C(=O)NCC(N)=O)CC3)ccc2O1 (stereo not drawn) [compound 272],400
11,Cc1c(F)cccc1C1CCc2cc(OC3CCC(C(=O)NCC(=O)N(C)C)CC3)ccc2O1 (stereo not drawn) [compound 273],600
12,Cc1c(F)cccc1C1CCc2cc(OC3CCC(C(=O)NCCS(=O)(=O)N(C)C)CC3)ccc2O1 (stereo not drawn) [compound 274],600
13,CNS(=O)(=O)CCNC(=O)C1CCC(Oc2ccc3c(c2)CCC(c2cccc(F)c2C)O3)CC1 (stereo not drawn) [compound 275],400
14,Cc1c(F)cccc1C1CCc2cc(OC3CCC(C(=O)NCC(C)O)CC3)ccc2O1 (stereo not drawn) [compound 276],600
15,Cc1c(F)cccc1C1CCc2cc(OC3CCC(C(=O)NCCNS(C)(=O)=O)CC3)ccc2O1 (stereo not drawn) [compound 277],300
16,CNC(=O)CNC(=O)C1CCC(Oc2ccc3c(c2)CCC(c2cccc(F)c2C)O3)CC1 (stereo not drawn) [compound 281],500
17,CSC(C)CCNC(=O)C1CCC(Oc2ccc3c(c2)CCC(c2cccc(F)c2C)O3)CC1 (stereo not drawn) [compound 282],400
18,CCn1nccc1CNC(=O)C1CCC(Oc2ccc3c(c2)CCC(c2cccc(F)c2C)O3)CC1 (stereo not drawn) [compound 283],600
19,Cc1c(F)cccc1C1CCc2cc(OC3CCC(C(=O)NC[C@@H]4CCCC[C@H]4O)CC3)ccc2O1 (stereo partly drawn) [compound 284],800
20,Cc1cc2c(cc1OC1CCC(C(=O)NCCO)CC1)CCC(c1ccccc1C)O2 (stereo not drawn) [compound 288],1900
21,Cc1cc2c(cc1OC1CCC(C(=O)NCc3ccno3)CC1)CCC(c1ccccc1C)O2 (stereo not drawn) [compound 289],1300
